The target of this assay is Replicase polyprotein 1ab (Severe acute respiratory syndrome coronavirus 2, UniProt P0DTD1). As to the kind of experiment: Inhibition of full-length recombinant SARS-CoV-2 3CL protease expressed in Escherichia coli BL21 (DE3) using FAM- KTSAVLQSGFRKMEK-TAMRA as substrate pre-incubated for 1 hr with compound followed by substrate addition measured after 30 mins by FRET analysis.
In the case of `CC(C)(C)[C@H](NC(=O)C(F)(F)F)C(=O)N1C[C@H]2[C@@H]([C@H]1C(=O)NN(C[C@@H]1CCNC1=O)C(=O)CCl)C2(C)C`, the half-maximal inhibitory concentration (IC50) was 6 nM. As for `CC[C@H](C)[C@H](NC(=O)C(F)(F)C(F)(F)F)C(=O)N1C[C@@H]2CCC[C@@H]2[C@H]1C(=O)NN(C[C@@H]1CCNC1=O)C(=O)[C@H](F)Cl`, the IC50 stood at 6 nM. In the case of `CCC(CC)[C@H](NC(=O)C(F)(F)F)C(=O)N1C[C@H]2[C@@H]([C@H]1C(=O)NN(C[C@@H]1CCNC1=O)C(=O)[C@H](F)Cl)C2(C)C` it was 7 nM.

The IC50 is the point on the concentration scale where inhibition reaches its midpoint.

(Values after ChEMBL document CHEMBL5370594, “Novel Compounds for Preventing SARS-CoV-2 Viral Replication and Treating COVID-19” (ACS Med Chem Lett, 2023).)
